Results published in US10105437B2, “Epitopes related to coeliac disease” (BTG International Limited, priority 2004, dated 2018).
Where no end group is shown, it is not given here.

What was measured:
Assay type in all cases: cell-based, human
[1] = test system: PBMC from HLA DQ8+DQ2- CD subjects; assay: Interferon gamma ELISPOT, glutenin 20mer library in HLA DQ8 subjects; conditions: tTG-pretreated glutenin 20mers sharing the motif or sequence
From the text: (§1) PBMC from two subjects initially challenged were used to screen the first round “Melbourne” wheat gliadin 20mer library. The 20mer sequences identified using PBMC from these two HLA DQ8 CD subjects were dissected further by screening, in five HLA DQ8+DQ2− CD subjects including the two original subjects, a second round library based on reactive 20mers in the 1st round library. The 2nd round library consisted of screening grade overlapping 16mers, and 13mers predicted to correspond to tTG-mediated deamidation products of epitopes with the potential for deamidation of glutamine at position 1 and/or position 9 (consistent with the HLA DQ8 peptide binding motif). In addition, the 1400 glutenin (HMW and LMW) tTG-pretreated 20mers in the “Melbourne” wheat gluten library were also screened in these five subjects.
Dominant 20mer peptides shared the motifs or had the sequences: PQQQQQQLVQQQ (SEQ ID NO: 1917), QGIFLQPH(LQ)I(AS)QLEV (SEQ ID NO: 1918), QPGQGQQG(HY)Y (SEQ ID NO: 1919), QSRYEAIRAII(FY)S (SEQ ID NO: 1920), RTTTSVPFD (SEQ ID NO: 1921), QPPFWRQQP (SEQ ID NO: 1922), Q(PS)(PS)(FI)(PS) QQQQ (SEQ ID NO: 1923), (QPLR)GYYPTSPQ (SEQ ID NO: 1924) (previously identified HLA DQ8 epitope, van der Wal 2001), QGSYYPGQASPQ (SEQ ID NO: 1925), […] (SEQ ID NO: 1926), and […] (SEQ ID NO: 1927). Glutenin peptides were assessed after pre-treatment with transglutaminase.

[2] = test system: PBMC from HLA-DQ2+ coeliac subjects; assay: Interferon gamma ELISPOT, third round wheat peptide library; conditions: following deamidation by tTG; 14 subjects; wheat challenge
Procedure: (§2) IFNγ ELISpot assays (Mabtech, Sweden) were performed in 96-well plates (MAIP S-45, Millipore) in which each well contained 25 mcl of peptide solution and 100 mcl of PBMC (2-8×10^5/well) in RPMI containing 10% heat inactivated human AB serum. After development and drying, IFNγ ELISpot plates were assessed using the MAIP automated ELISpot plate counter. Data was then analysed according to a novel algorithm (Expectation Maximization: EM) to define and quantify interferon-gamma responses to 9mer sequences contained within the peptide library (see FIG. 3 and below). 9mer peptides were then rationalised according to an algorithm that assumes redundancy in T-cell recognition, the “IterativeCluster” algorithm (see FIG. 4 and below), by allowing groups of amino acids with similar chemical properties at any one position in the 9mer, or for glutamate to replace glutamine at any position (assuming deamidation may have occurred).
The third round peptide library consisted of 74 peptides based upon structurally distinct sequences in the second round library found to induce at least 10% of the maximal response to any peptide in any subject. These peptides corresponded to wild-type (non-deamidated) sequences virtually identical to those used in the second round library. The distinct feature of this library was that it consisted of peptides with purity verified by HPLC as >80%, and with sequences confirmed by mass spectroscopy.
Interferon gamma ELSIPOT responses to the 3rd round library peptides following deamidation by tTG were compared in 14 subjects. Once again, sequences including the PQPQLPY motif (SEQ ID NO: 1937) were “dominant” in 9/14 subjects. However PFPQPQQPFPW (SEQ ID NO: 1894) stimulated >70% of maximal response in 1/14 subjects, PFPQQPQQPFPQ (SEQ ID NO: 1895) in 1/14, PQPFLPQLPYPQP (SEQ ID NO: 1896) in 1/14, QPFPQPQQPQQP (SEQ ID NO: 1897) in 4/14 (including 3 subjects in whom PQPQLPY peptides (SEQ ID NO: 1937) were not potent epitopes) SGQGVSQSQQQSQQQ (SEQ ID NO: 1898) in 2/14 (including one in which PQPQLPY peptides (SEQ ID NO: 1937) were not potent), QYEVIRSLVLRTLPNM (SEQ ID NO: 1899) and GLARSQMLQQSICHVG (SEQ ID NO: 1900) each in one (the same) subject in whom PQPQLPY peptides (SEQ ID NO: 1937) were not potent epitopes, RTTTSVPFGVGTGVGA (SEQ ID NO: 1901) in 1/14 subjects and AIHTVIHSIIMQQEQQ (SEQ ID NO: 1902) in 1/14 subjects.

[3] = test system: PBMC from subjects with DQ2+ coeliac disease; assay: Interferon gamma ELISPOT, high grade avenin peptides after oats challenge; conditions: for subjects in whom peptide was dominant (>70% maximal response) after oats challenge: day 6 PBMC
Procedure: as §2
High grade avenin peptides were assessed 3 days after completing oats challenge with pure wheat-free oats, 100 g/d for 3 days (“day 6” PBMC interferon gamma ELISPOT responses). These peptides were designed upon peptides previously defined using the screening grade (“first round”) avenin peptide library and on potential deamidation sites. There were 25 peptides (as 16mers) with purity verified by HPLC as >80%, and sequences confirmed by mass spectroscopy.
Interferon gamma ELISPOT responses to the high grade avenin peptides following deamidation by tTG were compared in 18 subjects with DQ2+ coeliac disease.

[4] = test system: PBMC from HLA DQ8+DQ2- CD subjects; assay: Interferon gamma ELISPOT, second round gliadin library in HLA DQ8 subjects; conditions: for subjects with dominant responses to one or both of these peptides: VYIPPYCTIAPFGIFG and/or AMCNVYIPPYCAMAPF; for subjects with dominant responses to one or both of these peptides / subjects with >70% response to maximal gliadin 16mer (dominant): five subjects; for subjects with >70% response to maximal gliadin 16mer (dominant): wheat gluten challenge
From the text: as §1

[5] = after oats challenge, deamidated by tTG, 18 subjects

Substance: QGSYYPGQASPQ (Description of Artificial Sequence: Synthetic gluten peptide) [motif of dominant glutenin 20mers, HLA DQ8]
- dominance among five subjects [1]: dominant in at least one of the five subjects

Substance: GLARSQMLQQSICHVG (Description of Artificial Sequence: Synthetic gluten peptide)
- subjects in whom peptide stimulated >70% of maximal response (dominant) [2]: one

Substance: QGQQLAQGQQGQQPAQVQQG (Description of Artificial Sequence: Synthetic gluten peptide) [glutenin 20mer, HLA DQ8]
- dominance among five subjects [1]: dominant in at least one of the five subjects

Substance: GYYPTSSLQPEQGQQGYYPT (Description of Artificial Sequence: Synthetic gluten peptide) [glutenin 20mer, HLA DQ8]
- dominance among five subjects [1]: dominant in at least one of the five subjects

Substance: SGQGVSQSQQQSQQQ (Description of Artificial Sequence: Synthetic gluten peptide)
- subjects in whom peptide stimulated >70% of maximal response (dominant) [2]: 2/14

Substance: QLRCPAIHSVVQAIIL (Description of Artificial Sequence: Synthetic gluten peptide)
- subjects in whom peptide was dominant (>70% maximal response) after oats challenge ([3]; deamidated by tTG, 18 subjects): 4/18

Substance: RTTTSVPFD (Description of Artificial Sequence: Synthetic gluten peptide) [motif of dominant glutenin 20mers, HLA DQ8]
- dominance among five subjects [1]: dominant in at least one of the five subjects

Substance: QIPEQLRCPAIHSVVQ (Description of Artificial Sequence: Synthetic gluten peptide)
- subjects with positive responses [3, 5]: 3/18

Substance: AMCNVYIPPYCAMAPF (Description of Artificial Sequence: Synthetic gluten peptide) [gliadin 16mer, HLA DQ8]
- subjects with dominant responses to one or both of these peptides [4]: 4/5
- subjects with >70% response to maximal gliadin 16mer (dominant) [4]: 3/5

Substance: (QE)QPIPVQP(QE): HLA DQ8 gliadin epitope motif, Q or E at marked positions (XQPIPVQPX; not fully specified; printed as (QE)QPIPVQP(QE))
- effect of deamidation of specific glutamine residues on ELISPOT responses [4]: enhanced or permissive to specific glutamine residues being deamidated

Substance: PQPFLPQLPYPQP (Description of Artificial Sequence: Synthetic gluten peptide)
- subjects in whom peptide stimulated >70% of maximal response (dominant) [2]: 1/14

Substance: EQYQPEQQPFMQPL (Description of Artificial Sequence: Synthetic gluten peptide)
- subjects with >40% maximal peptide response [3, 5]: 5/18

Substance: (QE)QPTPIQP(QE): HLA DQ8 gliadin epitope motif, Q or E at marked positions (XQPTPIQPX; not fully specified; printed as (QE)QPTPIQP(QE))
- effect of deamidation of specific glutamine residues on ELISPOT responses [4]: enhanced or permissive to specific glutamine residues being deamidated

Substance: PFPQPQQPFPW (Description of Artificial Sequence: Synthetic gluten peptide)
- subjects in whom peptide stimulated >70% of maximal response (dominant) [2]: 1/14

Substance: (QE)QPFP(QE)QP(QE): HLA DQ8 gliadin epitope motif, Q or E at marked positions (XQPFPXQPX; not fully specified; printed as (QE)QPFP(QE)QP(QE))
- effect of deamidation of specific glutamine residues on ELISPOT responses [4]: enhanced or permissive to specific glutamine residues being deamidated

Substance: QYEVIRSLVLRTLPNM (Description of Artificial Sequence: Synthetic gluten peptide)
- subjects in whom peptide stimulated >70% of maximal response (dominant) [2]: one

Substance: (QE)GSFQPSQ(QE): previously published HLA DQ8 epitope, van der Wal 1998 (XGSFQPSQX; not fully specified; printed as (QE)GSFQPSQ(QE)) [reference compound]
- effect of deamidation of specific glutamine residues on ELISPOT responses [4]: enhanced or permissive to specific glutamine residues being deamidated

Substance: VYIPPYCTIAPFGIFG (Description of Artificial Sequence: Synthetic gluten peptide) [gliadin 16mer, HLA DQ8]
- subjects with dominant responses to one or both of these peptides [4]: 4/5
- subjects with >70% response to maximal gliadin 16mer (dominant) [4]: 3/5

Substance: QYQPYPEQEQPILQQQ (Description of Artificial Sequence: Synthetic gluten peptide)
- subjects in whom peptide was dominant (>70% maximal response) after oats challenge ([3]; deamidated by tTG, 18 subjects): 3/18

Substance: PQQQQQQLVQQQ (Description of Artificial Sequence: Synthetic gluten peptide) [motif of dominant glutenin 20mers, HLA DQ8]
- dominance among five subjects [1]: dominant in at least one of the five subjects

Substance: EQQFGQNIFSGFSVQL (Description of Artificial Sequence: Synthetic gluten peptide)
- subjects in whom peptide was dominant (>70% maximal response) after oats challenge ([3]; deamidated by tTG, 18 subjects): 11/18

Substance: SEQYQPYPEQQEPFVQ (Description of Artificial Sequence: Synthetic gluten peptide) [peptide 1490, avenin peptide reported in Arentz-Hansen, PLoS Medicine 2004, reference compound]
- subjects with far weaker response ([3]; after oats challenge): 5
- subjects with strong positive response ([3]; after oats challenge): one

Substance: RTTTSVPFGVGTGVGA (Description of Artificial Sequence: Synthetic gluten peptide)
- subjects in whom peptide stimulated >70% of maximal response (dominant) [2]: 1/14

Substance: AIHTVIHSIIMQQEQQ (Description of Artificial Sequence: Synthetic gluten peptide)
- subjects in whom peptide stimulated >70% of maximal response (dominant) [2]: 1/14

Substance: (QE)QPFPLQP(QE): HLA DQ8 gliadin epitope motif, Q or E at marked positions (XQPFPLQPX; not fully specified; printed as (QE)QPFPLQP(QE))
- effect of deamidation of specific glutamine residues on ELISPOT responses [4]: enhanced or permissive to specific glutamine residues being deamidated

Substance: PFPQQPQQPFPQ (Description of Artificial Sequence: Synthetic gluten peptide)
- subjects in whom peptide stimulated >70% of maximal response (dominant) [2]: 1/14

Substance: QPFPQPQQPQQP (Description of Artificial Sequence: Synthetic gluten peptide)
- subjects in whom peptide stimulated >70% of maximal response (dominant) [2]: 4/14
